# Measurements taken from patent US9074014B2 (Ipsen Pharma S.A.S., priority 2008, dated 2015).
# Where a SMILES comes first, the peptide text is derived from it. Where no end group is shown, it is not given here. [ ]: non-standard residue; d: D form. Ac6c = NC1(C(=O)O)CCCCC1; Nle = CCCC[C@H](N)C(=O)O; Ac5c = NC1(C(=O)O)CCCC1; Aib = CC(C)(N)C(=O)O
# What was measured:
# [1] = Rat plasma half-life assay; assay type: in vitro ADME; settings: rat plasma, 37° C., LC-MS; read-out: Rat Plasma T½ (converted)
# [2] = Human plasma half-life assay; assay type: in vitro ADME; settings: human plasma, 37° C., LC-MS; read-out: Human Plasma T½ (converted)
Compound,half-life at 0.1 mg/ml [1],half-life at 0.1 mg/ml [2]
"Y[Aib]EGTF[Ac6c]SDYSIA[Nle]DKIHQQDFVNWLLAQK[Aib]KKNDWKHNITQ-OH [Example 24, (Aib^2, 31, A6c^7, Nle^14)hGIP(1-42)-OH]",24.8 h,> 48 h
"CC[C@H](C)[C@H](NC(=O)[C@H](CCCCN)NC(=O)[C@H](CC(=O)O)NC(=O)C1(NC(=O)[C@H](C)NC(=O)[C@@H](NC(=O)C2(NC(=O)[C@H](Cc3ccc(O)cc3)NC(=O)[C@H](CC(=O)O)NC(=O)[C@H](CO)NC(=O)[C@@H](NC(=O)[C@H](Cc3ccccc3)NC(=O)[C@@H](NC(=O)CNC(=O)[C@@H]3CCCN3C(=O)C(C)(C)NC(=O)[C@@H](N)Cc3ccc(O)cc3)[C@@H](C)O)[C@@H](C)CC)CCCC2)[C@@H](C)CC)CCCCC1)C(=O)N[C@@H](Cc1c[nH]cn1)C(=O)N[C@@H](CCC(N)=O)C(=O)N[C@@H](CCC(N)=O)C(=O)N[C@@H](CC(=O)O)C(=O)N[C@@H](Cc1ccccc1)C(=O)N[C@H](C(=O)N[C@@H](CC(N)=O)C(=O)N[C@@H](Cc1c[nH]c2ccccc12)C(=O)N[C@@H](CC(C)C)C(=O)N[C@@H](CC(C)C)C(=O)N[C@@H](C)C(=O)N[C@@H](CCC(N)=O)C(=O)N[C@@H](CCCCN)C(N)=O)C(C)C [Example 112, (Aib^2, Pro^3, A5c^11, A6c^14)hGIP(1-30)-NH2] (H-Y[Aib]PGTFISDY[Ac5c]IA[Ac6c]DKIHQQDFVNWLLAQK-NH2; N-terminus assumed)",> 72 h,59.7 h
"CC[C@H](C)[C@H](NC(=O)[C@H](CCCCN)NC(=O)[C@H](CC(=O)O)NC(=O)[C@H](CCSC)NC(=O)[C@H](C)NC(=O)[C@@H](NC(=O)C1(NC(=O)[C@H](Cc2ccc(O)cc2)NC(=O)[C@H](CC(=O)O)NC(=O)[C@H](CO)NC(=O)[C@@H](NC(=O)[C@H](Cc2ccccc2)NC(=O)[C@@H](NC(=O)CNC(=O)[C@@H]2CCCN2C(=O)C(C)(C)NC(=O)[C@@H](N)Cc2ccc(O)cc2)[C@@H](C)O)[C@@H](C)CC)CCCC1)[C@@H](C)CC)C(=O)N[C@@H](Cc1c[nH]cn1)C(=O)N[C@@H](CCC(N)=O)C(=O)N[C@@H](CCC(N)=O)C(=O)N[C@@H](CC(=O)O)C(=O)N[C@@H](Cc1ccccc1)C(=O)N[C@H](C(=O)N[C@@H](CC(N)=O)C(=O)N[C@@H](Cc1c[nH]c2ccccc12)C(=O)N[C@@H](CC(C)C)C(=O)N[C@@H](CC(C)C)C(=O)N[C@@H](C)C(=O)N[C@@H](CCC(N)=O)C(=O)N[C@@H](CCCCN)C(N)=O)C(C)C [Example 110, (Aib^2, Pro^3, A5c^11)hGIP(1-30)-NH2] (H-Y[Aib]PGTFISDY[Ac5c]IAMDKIHQQDFVNWLLAQK-NH2; N-terminus assumed)",25.8 h,13.7 h
"CC[C@H](C)[C@H](NC(=O)[C@H](CCCCN)NC(=O)[C@H](CC(=O)O)NC(=O)C1(NC(=O)[C@H](C)NC(=O)[C@@H](NC(=O)C2(NC(=O)[C@H](Cc3ccc(O)cc3)NC(=O)[C@H](CC(=O)O)NC(=O)[C@H](CO)NC(=O)[C@@H](NC(=O)[C@H](Cc3ccccc3)NC(=O)[C@@H](NC(=O)CNC(=O)[C@@H]3CC(O)CN3C(=O)[C@H](C)NC(=O)[C@@H](N)Cc3ccc(O)cc3)[C@@H](C)O)[C@@H](C)CC)CCCC2)[C@@H](C)CC)CCCCC1)C(=O)N[C@@H](Cc1c[nH]cn1)C(=O)N[C@@H](CCC(N)=O)C(=O)N[C@@H](CCC(N)=O)C(=O)N[C@@H](CC(=O)O)C(=O)N[C@@H](Cc1ccccc1)C(=O)N[C@H](C(=O)N[C@@H](CC(N)=O)C(=O)N[C@@H](Cc1c[nH]c2ccccc12)C(=O)N[C@@H](CC(C)C)C(=O)N[C@@H](CC(C)C)C(=O)N[C@@H](C)C(=O)N[C@@H](CCC(N)=O)C(=O)N[C@@H](CCCCN)C(=O)NCC(=O)N[C@@H](CCCCN)C(=O)N[C@@H](CCCCN)C(=O)N[C@@H](CC(N)=O)C(=O)N[C@@H](CC(=O)O)C(=O)N[C@@H](Cc1c[nH]c2ccccc12)C(=O)N[C@@H](CCCCN)C(=O)N[C@@H](Cc1c[nH]cn1)C(=O)N[C@@H](CC(N)=O)C(=O)N[C@H](C(=O)N[C@H](C(=O)N[C@@H](CCC(N)=O)C(=O)O)[C@@H](C)O)[C@@H](C)CC)C(C)C (stereo partly shown) [Example 88, (4Hyp^3, A5c^11, A6c^14)hGIP(1-42)-OH]",4.4 h,> 48 h
"Y[Aib]EGTF[Ac5c]SDYSIA[Nle]DKIHQQDFVNWLLAQKGKKNDWKHNITQ-OH [Example 58, (Aib^2, A5c^7, Nle^14)hGIP(1-42)-OH]",16.7 h,37.6 h
"YGEGTFISDY[Ac5c]IAMDKIHQQDFVNWLLAQKGKKNDWKHNITQH-OH [Example 117, (Gly^2, A5c^11, His^43)hGIP(1-43)-OH]",10.5 h,25.2 h
"Y[Aib]EGTF[Ac6c]SDYSIA[Nle]DKIHQQDFVNWLLAQKGKKNDWKHNI[Aib]Q-OH [Example 25, (Aib^2, 41, A6c^7, Nle^14)hGIP(1-42)-OH]",8.4 h,> 48 h
"CC[C@H](C)[C@H](NC(=O)[C@H](CO)NC(=O)[C@H](Cc1ccc(O)cc1)NC(=O)[C@H](CC(=O)O)NC(=O)[C@H](CO)NC(=O)[C@@H](NC(=O)[C@H](Cc1ccccc1)NC(=O)[C@@H](NC(=O)C(C)(C)NC(=O)[C@H](CCC(=O)O)NC(=O)C(C)(C)NC(=O)[C@@H](N)Cc1ccc(O)cc1)[C@@H](C)O)[C@@H](C)CC)C(=O)N[C@@H](C)C(=O)N[C@@H](CCSC)C(=O)N[C@@H](CC(=O)O)C(=O)N[C@@H](CCCCN)C(=O)N[C@H](C(=O)N[C@@H](Cc1c[nH]cn1)C(=O)N[C@@H](CCC(N)=O)C(=O)N[C@@H](CCC(N)=O)C(=O)N[C@@H](CC(=O)O)C(=O)N[C@@H](Cc1ccccc1)C(=O)N[C@H](C(=O)N[C@@H](CC(N)=O)C(=O)N[C@@H](Cc1c[nH]c2ccccc12)C(=O)N[C@@H](CC(C)C)C(=O)N[C@@H](CC(C)C)C(=O)N[C@@H](C)C(=O)N[C@@H](CCC(N)=O)C(=O)N[C@@H](CCCCN)C(N)=O)C(C)C)[C@@H](C)CC [Example 14, (Aib^2, 4)hGIP(1-30)-NH2]",48 h,34.8 h
"CCCC[C@H](NC(=O)C(C)(C)NC(=O)[C@@H](NC(=O)[C@H](CO)NC(=O)[C@H](Cc1ccc(O)cc1)NC(=O)[C@H](CC(=O)O)NC(=O)[C@H](CO)NC(=O)[C@@H](NC(=O)[C@H](Cc1ccccc1)NC(=O)[C@@H](NC(=O)CNC(=O)[C@@H]1CC(O)CN1C(=O)[C@H](C)NC(=O)[C@@H](N)Cc1ccc(O)cc1)[C@@H](C)O)[C@@H](C)CC)[C@@H](C)CC)C(=O)N[C@@H](CC(=O)O)C(=O)N[C@@H](CCCCN)C(=O)N[C@H](C(=O)N[C@@H](Cc1c[nH]cn1)C(=O)N[C@@H](CCC(N)=O)C(=O)N[C@@H](CCC(N)=O)C(=O)N[C@@H](CC(=O)O)C(=O)N[C@@H](Cc1ccccc1)C(=O)N[C@H](C(=O)N[C@@H](CC(N)=O)C(=O)N[C@@H](Cc1c[nH]c2ccccc12)C(=O)N[C@@H](CC(C)C)C(=O)N[C@@H](CC(C)C)C(=O)N[C@@H](C)C(=O)N[C@@H](CCC(N)=O)C(=O)N[C@@H](CCCCN)C(=O)NCC(=O)N[C@@H](CCCCN)C(=O)N[C@@H](CCCCN)C(=O)N[C@@H](CC(N)=O)C(=O)N[C@@H](CC(=O)O)C(=O)N[C@@H](Cc1c[nH]c2ccccc12)C(=O)N[C@@H](CCCCN)C(=O)N[C@@H](Cc1c[nH]cn1)C(=O)N[C@@H](CC(N)=O)C(=O)N[C@H](C(=O)N[C@H](C(=O)N[C@@H](CCC(N)=O)C(=O)O)[C@@H](C)O)[C@@H](C)CC)C(C)C)[C@@H](C)CC (stereo partly shown) [Example 68, (4Hyp^3, Aib^13, Nle^14)hGIP(1-42)-OH]",1.9 h,> 48 h
"CC[C@H](C)[C@H](NC(=O)[C@H](CCCCN)NC(=O)[C@H](CC(=O)O)NC(=O)[C@H](CCSC)NC(=O)[C@H](C)NC(=O)[C@@H](NC(=O)C(C)(C)NC(=O)[C@H](Cc1ccc(O)cc1)NC(=O)[C@H](CC(=O)O)NC(=O)[C@H](CO)NC(=O)[C@@H](NC(=O)[C@H](Cc1ccccc1)NC(=O)[C@@H](NC(=O)CNC(=O)[C@H](CCC(=O)O)NC(=O)C(C)(C)NC(=O)[C@@H](N)Cc1ccc(O)cc1)[C@@H](C)O)[C@@H](C)CC)[C@@H](C)CC)C(=O)N[C@@H](Cc1c[nH]cn1)C(=O)N[C@@H](CCC(N)=O)C(=O)N[C@@H](CCC(N)=O)C(=O)N[C@@H](CC(=O)O)C(=O)N[C@@H](Cc1ccccc1)C(=O)N[C@H](C(=O)N[C@@H](CC(N)=O)C(=O)N[C@@H](Cc1c[nH]c2ccccc12)C(=O)N[C@@H](CC(C)C)C(=O)N[C@@H](CC(C)C)C(=O)N[C@@H](C)C(=O)N[C@@H](CCC(N)=O)C(=O)N[C@@H](CCCCN)C(N)=O)C(C)C [Example 19, (Aib^2, 11)hGIP(1-30)-NH2] (H-Y[Aib]EGTFISDY[Aib]IAMDKIHQQDFVNWLLAQK-NH2; N-terminus assumed)",> 48 h,27.2 h
"CCCC[C@H](NC(=O)[C@H](C)NC(=O)[C@@H](NC(=O)C1(NC(=O)[C@H](Cc2ccc(O)cc2)NC(=O)[C@H](CC(=O)O)NC(=O)[C@H](CO)NC(=O)[C@@H](NC(=O)[C@H](Cc2ccccc2)NC(=O)[C@@H](NC(=O)CNC(=O)[C@@H]2CCCN2C(=O)C(C)(C)NC(=O)[C@@H](N)Cc2ccc(O)cc2)[C@@H](C)O)[C@@H](C)CC)CCCC1)[C@@H](C)CC)C(=O)N[C@@H](CC(=O)O)C(=O)N[C@@H](CCCCN)C(=O)N[C@H](C(=O)N[C@@H](Cc1c[nH]cn1)C(=O)N[C@@H](CCC(N)=O)C(=O)N[C@@H](CCC(N)=O)C(=O)N[C@@H](CC(=O)O)C(=O)N[C@@H](Cc1ccccc1)C(=O)N[C@H](C(=O)N[C@@H](CC(N)=O)C(=O)N[C@@H](Cc1c[nH]c2ccccc12)C(=O)N[C@@H](CC(C)C)C(=O)N[C@@H](CC(C)C)C(=O)N[C@@H](C)C(=O)N[C@@H](CCC(N)=O)C(=O)N[C@@H](CCCCN)C(N)=O)C(C)C)[C@@H](C)CC [Example 111, (Aib^2, Pro^3, A5c^11, Nle^14)hGIP(1-30)-NH2]",> 54 h,> 54 h
